Assay results taken from ChEMBL document CHEMBL1201862, “PubChem BioAssay data set” (2004).
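Exposure lasted 48 hours, with cells grown in 96-well plates and compounds tested at five concentrations. GI50: concentration for 50% inhibition of growth.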 Activity calls are given as the source filed them. Cut-off read from the data, not from the text of the source: active = GI50 up to about 1.1 µM and inactive = higher.

Tests used:
Experiment in all cases: NCI anticancer screen, dose series, 48 h
DMS-114 = test system: DMS-114
MDA-N = test system: MDA-N
MDA-MB-435 = test system: MDA-MB-435
Hs-578T = test system: Hs-578T
T47D = test system: T47D
LXFL 529 = test system: LXFL 529
RXF 631 = test system: RXF 631
BT-549 = test system: BT-549

SMILES | GI50 (DMS-114) | GI50 (MDA-N) | GI50 (MDA-MB-435) | GI50 (Hs-578T) | GI50 (T47D) | GI50 (LXFL 529) | GI50 (RXF 631) | GI50 (BT-549)
Cc1nc(O)nc(O)c1/C=C/C(=O)O | > 1000 µM (inactive) |  |  |  |  |  |  | 
CCN1c2ccccc2-n2c(C)nnc2-c2c(-c3ccccc3)n[nH]c21 |  | 28 µM (inactive) | 16.2 µM (inactive) | 46.1 µM (inactive) | 14.7 µM (inactive) |  |  | 
O=C(N/C(=C\c1ccccc1[N+](=O)[O-])c1nc2ccccc2[nH]1)c1ccccc1 |  |  |  |  |  | 59.4 µM (inactive) | > 100 µM (inactive) | 
CCOc1ncn(-c2ccc(NC(=S)Nc3ncccn3)cc2)n1 |  |  | 56.1 µM (inactive) |  | 21.7 µM (inactive) |  |  | 20.8 µM (inactive)
CC(=O)OC1COC(N2c3ccccc3[C@@H]3CCc4c([nH]c5ccccc45)[C@@H]32)C(OC(C)=O)C1OC(C)=O.CC(=O)OC1COC(N2c3ccccc3[C@H]3CCc4c([nH]c5ccccc45)[C@H]32)C(OC(C)=O)C1OC(C)=O (stereo not given in full) |  | 65.3 µM (inactive) | 51.8 µM (inactive) | 21.4 µM (inactive) |  |  |  | 56.9 µM (inactive)
CC1=Nc2c(N)nc(N)nc2N(C)C1 |  | > 100 µM (inactive) | > 100 µM (inactive) | > 100 µM (inactive) | > 100 µM (inactive) |  |  | > 100 µM (inactive)
CC(Sc1ccccc1)C(CO)(CO)[N+](=O)[O-] (stereo not given) | 17.2 µM (inactive) |  |  |  |  | 13.7 µM (inactive) |  | 
CCC1C(C#N)=C(O)NC(O)=C1C#N | > 100 µM (inactive) |  |  |  |  | > 100 µM (inactive) | > 100 µM (inactive) | 
CCP(=O)(CC)C(Cl)(Cl)C(O)C(Cl)(Cl)Cl (stereo not given) |  | > 100 µM (inactive) |  | > 100 µM (inactive) | > 100 µM (inactive) |  |  | 
O=C(CCN1CCOCC1)/C(=C/c1ccccc1)c1ccccc1 | 3.06 µM (inactive) |  |  |  |  |  |  | 
C=C1C(=O)OC2C[C@@]3(C)CCCC(=C)C3CC12 (stereo not given in full) | 16.2 µM (inactive) |  |  |  |  | 3.2 µM (inactive) |  | 
CC(=O)c1c(-c2ccco2)c(C#N)c(=S)n(C2OC(CO)C(O)C(O)C2O)c1-c1ccccc1 (stereo not given) |  | > 10 µM (inactive) | 29.2 µM (inactive) | 61.8 µM (inactive) | 29.4 µM (inactive) |  |  | > 100 µM (inactive)
